Measured values: US7053041B1, “Methods and compositions useful for inhibition of αvβ5mediated angiogenesis” (The Scripps Research Institute, priority 1996, dated 2006)
Entries after “also recorded” stand apart in the source; their conditions may differ. [ ]: non-standard residue; d: D form.

B1: LM609: mouse monoclonal antibody, anti-αvβ3 (antibody, V domains shown)
VH: EVQLEESGGGLVKPGGSLKLSCAASGFAFSSYDMSWVRQIPEKRLEWVAKVSSGGGSTYYLDTVQGRFTISRDNAKNTLYLQMSSLNSEDTAMYYCARHNYGSFAYWGQGTLVTVSA
VL: ELVMTQTPATLSVTPGDSVSLSCRASQSISNHLHWYQQKSHESPRLLIKYASQSISGIPSRFSGSGSGTDFTLSINSVETEDFGMYFCQQSNSWPHTFGGGTKLEIKRA

Legend:
[1] = test system: VEGF-induced angiogenesis; test: chick CAM assay, VEGF-induced angiogenesis, intravenous inhibitors; type: in vivo; details: for inhibition of VEGF-induced CAM angiogenesis: VEGF 150 ng/ml, 75 μg antibody or peptide intravenously, 72 hours
Procedure: Ten day old chick embryos were obtained from McIntyre Poultry (Lakeside, Calif.) and incubated at 37C with 60% humidity. A small hole was made through the shell at the end of the egg directly over the air sac with the use of a small crafts drill (Dremel, Division of Emerson Electric Co., Racine, Wis.). A second hole was drilled on the broad side of the egg in a region devoid of embryonic blood vessels determined previously by candling the egg. […] A 1.0 centimeter (cm)×1.0 cm square window was cut through the shell over the dropped CAM with the use of a small model grinding wheel (Dremel). The small window allowed direct access to the underlying CAM.
Angiogenesis was induced by placing a 5 millimeter (mm)×5 mm Whatman filter disk (Whatman Filter paper No. 1) saturated with Hanks Balanced Salt Solution (HBSS, GIBCO, Grand Island, N.Y.) or HBSS containing preselected cytokines at a preselected concentration, i.e. one to test the effect on angiogenesis, on the CAM of a 10 day chick embryo in a region devoid of blood vessels and the windows were later sealed with tape. Angiogenesis was monitored by photomicroscopy after 72 hours. CAMs were snap frozen then 6 μm cryostat sections were fixed with acetone and stained by immunofluorescence as described in Example 2B and 2C with 10 μg/ml of selected anti-integrin antibodies, including those directed against αvβ5 as described in Example 1.
Angiogenesis was first induced on 10 day old chick embryos by application of growth factor-saturated filter disks. Specifically, in the first assays, angiogenesis was induced by exposure to either bFGF or VEGF, each at a concentration of 150 ng/ml.
For application of growth factors, during the candling procedures, prominent blood vessels were selected and marks were made on the egg shell to indicate their positions. The holes were drilled in the shell, the CAMs were dropped and growth factor-saturated filter papers were then separately placed on the CAMs as described above. The windows were sealed with sterile tape and the embryos were replaced in the incubator.
Twenty four hours later, a second small window was carefully cut on the lateral side of the egg shell directly over prominent blood vessels selected previously. The outer egg shell was carefully removed leaving the embryonic membranes intact. The shell membrane was made transparent with a small drop of mineral oil (Perkin-Elmer Corp, Norwalk, Conn.) which allowed the blood vessels to be visualized easily. Then, phosphate buffered saline (PBS), 75 μg of purified sterile anti-integrin antibodies or 75 μg of synthetic peptides (cyclic peptide RGDfV, SEQ ID NO 4 and control cyclic peptide RADfV, SEQ ID NO 5) in PBS were injected into blood vessels apparent on the growth factor-induced CAMs. The windows were sealed with tape and the embryos were allowed to incubate until 72 hours.
The filter discs and representative surrounding CAM tissues were photographed in a stereomicroscope (FIGS. 3A–3F and FIGS. 5A–5F) and the mean angiogenic index +/− the standard error was determined for 12 CAMs per condition (FIGS. 4A–4B and FIGS. 6A–6B). Angiogenesis was scored for each embryo in a double blind manner by analyzing the number and extent of branching of blood vessels within the area of each disc. The scores ranged from 1 (low) to 4 (high) and the angiogenesis index was determined by subtracting a background of 1 from all data.
In a further assay performed in the CAM model having VEGF-induced angiogenesis, 2 μg of peptides 85189 (SEQ ID NO 9) and the inert salt counterpart 121974 were separately intravenously injected as previously described. The effect of the peptides was assessed in comparison to that of control peptide 69601 (SEQ ID NO 5) and to untreated (labeled as NT) preparations.
The effect of the peptides of VEGF-induced angiogenesis is measured through a determination of the number of blood vessel branch points. […]

[2] = test system: VEGF-induced angiogenesis; test: in vivo rabbit eye model assay, VEGF-induced corneal angiogenesis
Procedure: (§1) Hydron polymer pellets containing growth factor and monoclonal antibodies (mAbs) were prepared as described by D'Amato, et al., Proc. Natl. Acad. Sci., 91:4082–4085 (1994). […] In addition, hydron pellets were prepared which contained either 40 μg of the mAb P1F6 (anti-αvβ5) or the control antibody, LM609 (anti-αvβ3), in PBS.
(§2) All of the mAbs tested were purified from ascites fluid using Protein-A Sepharose CL-4B affinity column chromatography according to well-known methods. The eluted immunoglobulin was then dialyzed against PBS and treated with Detoxi-gel (Pierce Chemicals, Rockford, Ill.) to remove endotoxin. […] Monoclonal antibodies were therefore tested for the presence of endotoxin with the Chromogenic Limulus Amebocyte Lysate Assay (BioWhittaker, Walkersville, Md.) and only those mAbs without detectable endotoxin were used in the rabbit eye model assay.
(§3) Approximately 12 μl of casting material was placed into each peg and polymerized overnight in a sterile hood. Pellets were then sterilized by ultraviolet irradiation.
A series of eight animals were used for paired eye experiments where each animal received a Hydron implant containing a preselected cytokine with a preselected antibody or control immunoglobulin. Specifically, for each rabbit, one cornea was surgically implanted with a Hydron pellet containing either bFGF or VEGF in conjunction with mAb P1F6 and the other cornea was treated with either bFGF or VEGF in conjunction with MAb LM609. […]
(§4) The effects of specific mAb integrin immunoreactivity on the above cytokine-induced angiogenesis is also quantified as shown in FIGS. 2A and 2B. […] Photographs were recorded on Kodak Ektachrome 64T slide film and images were converted for computer-assisted quantitation using Biorad's Molecular Analyst 1.1 software after acquisition through a Model GS670 imaging densitometer. […]
(§5) Each experiment consisted of eight rabbits in which one eye received a pellet comprising 100 nanograms (ng) bFGF and the other eye received a pellet comprising 1 microgram (ug) VEGF. […] After 7 days, the cornea were evaluated as described above.

[3] = test system: bFGF-induced angiogenesis; test: in vivo rabbit eye model assay, bFGF-induced corneal angiogenesis
Procedure: as §1, §2, §3
A series of eight animals were used for paired eye experiments where each animal received a Hydron implant containing a preselected cytokine with a preselected antibody or control immunoglobulin. Specifically, for each rabbit, one cornea was surgically implanted with a Hydron pellet containing either bFGF or VEGF in conjunction with mAb P1F6 and the other cornea was treated with either bFGF or VEGF in conjunction with MAb LM609. Individual pellets were implanted into surgically created “pockets” formed in the mid-stroma of the cornea of rabbits. The surgical procedure was done under sterile technique using a Wild model M691 operating microscope equipped with a beamsplitter to which was mounted a camera for photographically recording individual corneas. A 3 mm by 5 mm “pocket” was created in the corneal stroma by making a 3 mm incision to half the corneal thickness with a 69 Beaver blade. The stroma was dissected peripherally using an iris spatula and the pellet was implanted with its peripheral margin 2 mm from the limbus. […]
as §4, §5

Molecule | inhibition of VEGF-induced CAM angiogenesis [1] | corneal blood vessel growth at 7 days, VEGF-stimulated eyes ([2]; peptide s.q. 50 ug per kg initial, 20 ug/kg daily, 1 ug VEGF pellet) | corneal blood vessel growth at 7 days, bFGF-stimulated eyes ([3]; peptide s.q. 50 ug per kg initial, 20 ug/kg daily, 100 ng bFGF pellet) | inhibition of VEGF-induced CAM angiogenesis (number of blood vessel branch points) ([1]; 2 μg peptide intravenously) | inhibition of corneal blood vessel growth ([2]; peptide s.q. 50 ug per kg initial, 20 ug/kg daily, 7 days, 1 ug VEGF pellet) | amount of corneal blood vessel growth compared to controls ([3]; peptide s.q. 50 ug per kg initial, 20 ug/kg daily, 7 days, 100 ng bFGF pellet) | effect on CAM angiogenesis induced by VEGF (angiogenesis index) ([1]; VEGF 1.0 μg/ml, antibodies 75 μg per embryo, calphostin C 100 nM) | inhibition of VEGF-induced corneal angiogenesis ([2]; Hydron pellet with 750 ng VEGF and 40 μg mAb, postoperative day 10) | reduction of bFGF-induced angiogenesis (mean neovascular area) ([3]; 40 μg mAb in pellet, compared to paired eye treated with P1F6, p<0.005) | inhibition of bFGF-induced corneal angiogenesis ([3]; Hydron pellet with 750 ng bFGF and 40 μg mAb, postoperative day 10)
cyclo(Arg-Ala-Asp-D-Phe-Val) (cyclo(RAD[dF]V); SMILES CC(C)[C@@H]1NC(=O)[C@@H](Cc2ccccc2)NC(=O)[C@H](CC(=O)O)NC(=O)[C@H](C)NC(=O)[C@H](CCCNC(=N)N)NC1=O) [peptide 69601, reference compound] | did not effect angiogenesis | substantial corneal blood vessel growth | substantial corneal blood vessel growth | – | – | – | – | – | – | –
cyclo(Arg-Gly-Asp-D-Phe-NMeVal) [peptide 85189] | – | – | – | completely inhibited angiogenesis | ~100% | less than 50% | – | – | – | –
B1 | little effect on angiogenesis | – | – | – | – | – | failed to do so | not effective at inhibiting VEGF-induced angiogenesis; also recorded: minimal effect on VEGF-induced angiogenesis | 86% | inhibited
